Laboratory results reported in article PMC6222927, “Aminobenzosuberone Scaffold as a Modular Chemical Tool for the Inhibition of Therapeutically Relevant M1 Aminopeptidases” (Molecules : A Journal of Synthetic Chemistry and Natural …, 2018).
Like-named read-outs stand apart in the source and are kept apart here.

Tests used:
[1] = molecular target: human Leucyl-cystinyl aminopeptidase (HsIRAP); settings: ref 48; cited from earlier work
[2] = molecular target: human leukotriene A4 hydrolase (rHsLTA4H); parameters: method as in PMID 21843945; settings: ref 58; cited from earlier work
pAPN from porcine kidney = settings: Dixon plots; cited from earlier work
E. coli rEcPepN = E. coli rEcPepN (Escherichia coli, UniProt P04825); test: rEcPepN inhibition, Leu-pNA substrate, Dixon method; format: biochemical
Protocol: Enzyme activity assays were carried out in 10 mM Tris-HCl buffer at pH 7.5 with 150 mM NaCl, enzyme, 100 µM substrate (Leu-pNA) in a 100 μL reaction at 37 °C. The absorbance was read at 405 nm. Concentrations ranging from 1 nM to 100 μM of inhibitors (dissolved in DMSO) were incubated with each of the enzymes ([…]) for 30 min at 37 °C in a 96 well plate. After addition of the substrate, immediate increase in absorption was measured. All inhibition assays were performed in triplicates and initial velocities were measured. Percentage inhibition and log values of inhibitor concentrations were plotted using SigmaPlot to determine IC50 values. Ki values were determined by the Dixon method. The assay consists of reaction buffer, enzyme and varied concentrations of Leu-pNA (25, 50, 100, 200 and 400 µM). […] Data were plotted as 1/rate versus inhibitor concentration for each substrate concentration and a linear fit was calculated by non-linear regression using SigmaPlot12.5. All the reactions were performed in triplicates, SD values were reported.

[3] = molecular target: T1, human endoplasmic reticulum aminopeptidase 2 (rHsERAP2) (Homo sapiens, UniProt Q6P179); test: rHsERAP2 inhibition, R-AMC fluorigenic substrate; format: biochemical; settings: 50 µM R-AMC
T1 construct: made in house; host or cells: Hi5 insect cells (baculovirus produced in sf9)
Protocol: (§1) The enzymatic activity of HsERAP1, HsERAP2 and HsIRAP was determined by following the time-dependent increase in fluorescence at 460 nm (excitation: 380 nm) of the fluorigenic substrates L-Leucine-7-amido-4-methyl coumarin (L-AMC; Sigma, Darmstatd, Germany) for HsERAP1 and HsIRAP and L-arginyl-7-amido-4-methyl coumarin (R-AMC; Sigma) for HsERAP2. […] The reaction was followed for 10 min at room temperature and the remaining enzymatic activity was calculated by measuring the slope of the time course.

[4] = molecular target: human puromycine sensitive aminopeptidase (rHsPSA) (Homo sapiens, UniProt P55786); test: rHsPSA inhibition, Leu-pNA substrate, Dixon method; format: biochemical; settings: triplicate, SD
Protocol: Enzyme activity assays were carried out in 10 mM Tris-HCl buffer at pH 7.5 with 150 mM NaCl, enzyme, 100 µM substrate (Leu-pNA) in a 100 μL reaction at 37 °C. The absorbance was read at 405 nm. Concentrations ranging from 1 nM to 100 μM of inhibitors (dissolved in DMSO) were incubated with each of the enzymes ([…]) for 30 min at 37 °C in a 96 well plate. After addition of the substrate, immediate increase in absorption was measured. All inhibition assays were performed in triplicates and initial velocities were measured. Percentage inhibition and log values of inhibitor concentrations were plotted using SigmaPlot to determine IC50 values. Ki values were determined by the Dixon method. The assay consists of reaction buffer, enzyme and varied concentrations of Leu-pNA (25, 50, 100, 200 and 400 µM). […]. All the reactions were performed in triplicates, SD values were reported.

[5] = Octanol/water partition coefficient (logD7.4) by reversed-phase HPLC; settings: pH 7.4
Protocol: The flow was 0.9 mL/min. The aminobenzosuberone derivatives were dissolved at 0.4 µM in methanol. The standards were also dissolved in methanol. Column void volume was estimated from the retention time of uracil, which was included as a non-retained internal reference with each injection.

P. falciparum rPfAM1 = molecular target: T2, P. falciparum rPfAM1 (Plasmodium falciparum, UniProt O96935); parameters: method as in PMID 28934959; settings: read-out: Ki rPfAM1; cited from earlier work
T2 construct: made in house; host or cells: Escherichia coli Rosetta 2 (DE3)
T2 sequence (O96935 1-1085): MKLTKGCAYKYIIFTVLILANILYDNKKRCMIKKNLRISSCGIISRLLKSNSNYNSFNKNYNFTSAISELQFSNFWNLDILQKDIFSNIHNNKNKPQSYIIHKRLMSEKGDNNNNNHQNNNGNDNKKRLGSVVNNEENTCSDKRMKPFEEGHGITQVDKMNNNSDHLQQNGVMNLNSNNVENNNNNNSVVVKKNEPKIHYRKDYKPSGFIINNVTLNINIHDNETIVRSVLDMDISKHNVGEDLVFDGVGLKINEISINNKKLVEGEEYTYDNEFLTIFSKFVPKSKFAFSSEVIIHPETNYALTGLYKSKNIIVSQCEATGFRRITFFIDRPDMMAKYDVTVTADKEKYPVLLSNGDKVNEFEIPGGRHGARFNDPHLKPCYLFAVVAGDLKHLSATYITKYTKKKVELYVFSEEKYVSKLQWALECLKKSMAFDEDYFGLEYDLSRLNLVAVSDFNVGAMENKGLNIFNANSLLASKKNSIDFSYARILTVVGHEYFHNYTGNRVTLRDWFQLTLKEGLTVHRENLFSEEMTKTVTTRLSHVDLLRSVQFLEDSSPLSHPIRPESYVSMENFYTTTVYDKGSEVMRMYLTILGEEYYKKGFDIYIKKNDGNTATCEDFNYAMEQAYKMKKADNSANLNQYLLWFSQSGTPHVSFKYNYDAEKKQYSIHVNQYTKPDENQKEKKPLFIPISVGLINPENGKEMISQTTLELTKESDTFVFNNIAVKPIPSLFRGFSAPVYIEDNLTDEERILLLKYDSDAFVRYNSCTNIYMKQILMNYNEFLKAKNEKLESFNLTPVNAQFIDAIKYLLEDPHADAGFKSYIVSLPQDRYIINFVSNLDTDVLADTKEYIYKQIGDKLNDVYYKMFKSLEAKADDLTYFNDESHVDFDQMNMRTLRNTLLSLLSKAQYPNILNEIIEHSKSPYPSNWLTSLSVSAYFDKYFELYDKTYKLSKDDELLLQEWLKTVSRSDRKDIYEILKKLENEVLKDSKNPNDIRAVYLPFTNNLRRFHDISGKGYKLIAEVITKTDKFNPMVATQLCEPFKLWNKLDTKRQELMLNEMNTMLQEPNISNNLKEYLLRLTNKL

P. falciparum rPfAM17 = molecular target: T3, P. falciparum rPfAM17 (Plasmodium falciparum, UniProt Q8IL11); parameters: method as in PMID 28934959; settings: ref 69; cited from earlier work
T3 construct: made in house; host or cells: Escherichia coli Rosetta 2 (DE3)
T3 sequence (Q8IL11 1-605): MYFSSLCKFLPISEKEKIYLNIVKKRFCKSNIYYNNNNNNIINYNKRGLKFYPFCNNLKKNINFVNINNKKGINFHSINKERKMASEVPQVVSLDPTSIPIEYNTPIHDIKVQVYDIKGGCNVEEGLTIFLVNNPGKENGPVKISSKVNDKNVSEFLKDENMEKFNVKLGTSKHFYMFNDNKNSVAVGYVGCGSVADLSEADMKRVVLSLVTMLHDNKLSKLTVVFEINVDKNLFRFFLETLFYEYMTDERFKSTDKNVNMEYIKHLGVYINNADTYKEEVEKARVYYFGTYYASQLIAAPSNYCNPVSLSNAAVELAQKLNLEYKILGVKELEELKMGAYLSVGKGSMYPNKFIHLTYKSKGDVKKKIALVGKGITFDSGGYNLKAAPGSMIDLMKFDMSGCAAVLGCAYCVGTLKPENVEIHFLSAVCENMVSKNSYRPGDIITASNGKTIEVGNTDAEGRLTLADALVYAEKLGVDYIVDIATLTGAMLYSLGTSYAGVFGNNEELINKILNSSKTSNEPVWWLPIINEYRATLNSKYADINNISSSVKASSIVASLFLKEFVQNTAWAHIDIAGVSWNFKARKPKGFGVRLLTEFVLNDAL

[6] = molecular target: T4, human endoplasmic reticulum aminopeptidase 1 (rHsERAP1) (Homo sapiens, UniProt Q9NZ08); test: rHsERAP1 inhibition, L-AMC fluorigenic substrate; format: biochemical; settings: 50 µM L-AMC
T4 construct: made in house; host or cells: Hi5 insect cells (baculovirus produced in sf9)
Protocol: as §1

[7] = molecular target: aminopeptidase from A. proteolytica (AAP); parameters: method as in PMID 21843945; settings: ref 58; cited from earlier work
[8] = molecular target: human endoplasmic reticulum aminopeptidase 1 (HsERAP1); settings: ref 41; cited from earlier work
[9] = molecular target: P. falciparum M17 aminopeptidase (PfAM17); settings: ref 45; cited from earlier work
[10] = molecular target: bimetallic aminopeptidase from A. proteolytica (AAP); parameters: method as in PMID 21292493; settings: ref 42; cited from earlier work
[11] = tested on: E. coli (EcPepN) M1 aminopeptidase; settings: ref 43; cited from earlier work
[12] = molecular target: P. falciparum (PfAM1) M1 aminopeptidase; settings: ref 44; cited from earlier work
[13] = molecular target: mammalian cytosolic leucine aminopeptidase (mLAPc); settings: cited from earlier work
[14] = molecular target: human puromycine sensitive aminopeptidase (HsPSA); settings: ref 37; cited from earlier work
[15] = molecular target: human arginyl aminopeptidase B (HsAPB); settings: cited from earlier work
[16] = molecular target: mammalian aminopeptidase N (mAPN); settings: cited from earlier work

Sequence of E. coli rEcPepN (P04825 whole entry): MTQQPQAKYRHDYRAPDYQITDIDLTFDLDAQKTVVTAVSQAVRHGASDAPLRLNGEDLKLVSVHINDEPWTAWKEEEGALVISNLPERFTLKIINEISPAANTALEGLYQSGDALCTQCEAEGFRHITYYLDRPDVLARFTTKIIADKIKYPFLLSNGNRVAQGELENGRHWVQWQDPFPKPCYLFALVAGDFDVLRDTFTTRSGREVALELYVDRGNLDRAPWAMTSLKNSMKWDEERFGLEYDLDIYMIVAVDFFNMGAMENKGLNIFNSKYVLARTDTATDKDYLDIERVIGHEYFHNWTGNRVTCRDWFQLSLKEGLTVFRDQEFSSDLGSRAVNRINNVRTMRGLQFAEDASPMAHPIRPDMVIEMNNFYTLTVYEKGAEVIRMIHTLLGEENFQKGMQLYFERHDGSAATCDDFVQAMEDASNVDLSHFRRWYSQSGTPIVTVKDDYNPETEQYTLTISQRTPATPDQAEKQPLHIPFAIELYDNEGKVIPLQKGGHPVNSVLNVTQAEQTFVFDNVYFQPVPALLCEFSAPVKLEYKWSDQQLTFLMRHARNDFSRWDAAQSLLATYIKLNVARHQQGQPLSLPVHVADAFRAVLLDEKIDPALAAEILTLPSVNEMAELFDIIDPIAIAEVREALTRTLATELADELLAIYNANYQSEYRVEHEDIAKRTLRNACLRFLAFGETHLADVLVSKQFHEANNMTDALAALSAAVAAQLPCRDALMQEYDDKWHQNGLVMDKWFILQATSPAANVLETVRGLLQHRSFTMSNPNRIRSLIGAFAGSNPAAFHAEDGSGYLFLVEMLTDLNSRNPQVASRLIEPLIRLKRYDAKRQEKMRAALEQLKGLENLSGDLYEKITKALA
Sequence of human puromycine sensitive aminopeptidase (rHsPSA) (P55786 whole entry): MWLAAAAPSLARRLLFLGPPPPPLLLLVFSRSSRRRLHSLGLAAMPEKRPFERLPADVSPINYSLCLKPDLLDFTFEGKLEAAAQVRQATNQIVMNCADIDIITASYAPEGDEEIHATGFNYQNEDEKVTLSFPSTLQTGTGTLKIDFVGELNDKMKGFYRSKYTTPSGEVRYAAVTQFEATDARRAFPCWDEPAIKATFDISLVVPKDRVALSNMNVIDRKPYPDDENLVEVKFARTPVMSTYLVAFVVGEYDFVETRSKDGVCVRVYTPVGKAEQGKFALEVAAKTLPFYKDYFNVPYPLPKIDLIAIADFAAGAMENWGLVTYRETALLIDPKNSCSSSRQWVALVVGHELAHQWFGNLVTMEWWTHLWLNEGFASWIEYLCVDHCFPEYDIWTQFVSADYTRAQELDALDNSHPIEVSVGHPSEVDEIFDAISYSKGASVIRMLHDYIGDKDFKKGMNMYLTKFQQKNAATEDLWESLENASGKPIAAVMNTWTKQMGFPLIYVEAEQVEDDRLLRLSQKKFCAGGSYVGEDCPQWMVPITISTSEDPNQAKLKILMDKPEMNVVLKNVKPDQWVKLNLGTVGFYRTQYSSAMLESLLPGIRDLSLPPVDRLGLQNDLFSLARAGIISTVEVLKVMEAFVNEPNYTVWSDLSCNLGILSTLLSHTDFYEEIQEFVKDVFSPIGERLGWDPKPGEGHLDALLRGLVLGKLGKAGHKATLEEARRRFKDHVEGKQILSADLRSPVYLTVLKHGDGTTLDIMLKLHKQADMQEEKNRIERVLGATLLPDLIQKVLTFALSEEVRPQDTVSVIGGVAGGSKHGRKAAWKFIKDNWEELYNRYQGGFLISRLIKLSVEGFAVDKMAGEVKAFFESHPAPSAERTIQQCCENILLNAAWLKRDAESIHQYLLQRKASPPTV
T1 sequence (Q6P179 whole entry): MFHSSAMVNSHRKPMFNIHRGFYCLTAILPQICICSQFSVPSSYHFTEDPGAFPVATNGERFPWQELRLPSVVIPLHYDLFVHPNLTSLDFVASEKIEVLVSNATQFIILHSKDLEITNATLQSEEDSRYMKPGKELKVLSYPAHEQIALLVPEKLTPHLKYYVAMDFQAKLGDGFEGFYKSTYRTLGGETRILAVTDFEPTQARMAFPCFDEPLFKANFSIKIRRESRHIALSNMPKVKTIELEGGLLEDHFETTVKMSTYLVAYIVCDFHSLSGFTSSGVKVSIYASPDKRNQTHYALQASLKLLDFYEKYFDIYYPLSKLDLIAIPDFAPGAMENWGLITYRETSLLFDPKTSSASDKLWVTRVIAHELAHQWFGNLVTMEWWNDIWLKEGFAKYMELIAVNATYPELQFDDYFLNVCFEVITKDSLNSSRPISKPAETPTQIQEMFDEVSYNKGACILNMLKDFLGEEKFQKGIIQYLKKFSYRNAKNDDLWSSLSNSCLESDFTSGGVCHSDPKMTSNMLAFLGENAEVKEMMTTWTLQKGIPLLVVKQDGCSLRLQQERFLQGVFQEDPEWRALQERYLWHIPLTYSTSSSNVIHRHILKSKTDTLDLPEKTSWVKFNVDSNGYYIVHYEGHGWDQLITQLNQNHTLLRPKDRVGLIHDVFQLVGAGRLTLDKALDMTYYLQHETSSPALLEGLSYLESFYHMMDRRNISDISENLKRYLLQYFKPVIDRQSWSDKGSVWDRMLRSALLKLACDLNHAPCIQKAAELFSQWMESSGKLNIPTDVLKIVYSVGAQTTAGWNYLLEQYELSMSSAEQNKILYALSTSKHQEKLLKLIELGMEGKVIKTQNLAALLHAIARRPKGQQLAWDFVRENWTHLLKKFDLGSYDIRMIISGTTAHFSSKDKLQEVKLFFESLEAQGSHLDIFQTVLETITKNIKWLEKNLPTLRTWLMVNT
T4 sequence (Q9NZ08 whole entry): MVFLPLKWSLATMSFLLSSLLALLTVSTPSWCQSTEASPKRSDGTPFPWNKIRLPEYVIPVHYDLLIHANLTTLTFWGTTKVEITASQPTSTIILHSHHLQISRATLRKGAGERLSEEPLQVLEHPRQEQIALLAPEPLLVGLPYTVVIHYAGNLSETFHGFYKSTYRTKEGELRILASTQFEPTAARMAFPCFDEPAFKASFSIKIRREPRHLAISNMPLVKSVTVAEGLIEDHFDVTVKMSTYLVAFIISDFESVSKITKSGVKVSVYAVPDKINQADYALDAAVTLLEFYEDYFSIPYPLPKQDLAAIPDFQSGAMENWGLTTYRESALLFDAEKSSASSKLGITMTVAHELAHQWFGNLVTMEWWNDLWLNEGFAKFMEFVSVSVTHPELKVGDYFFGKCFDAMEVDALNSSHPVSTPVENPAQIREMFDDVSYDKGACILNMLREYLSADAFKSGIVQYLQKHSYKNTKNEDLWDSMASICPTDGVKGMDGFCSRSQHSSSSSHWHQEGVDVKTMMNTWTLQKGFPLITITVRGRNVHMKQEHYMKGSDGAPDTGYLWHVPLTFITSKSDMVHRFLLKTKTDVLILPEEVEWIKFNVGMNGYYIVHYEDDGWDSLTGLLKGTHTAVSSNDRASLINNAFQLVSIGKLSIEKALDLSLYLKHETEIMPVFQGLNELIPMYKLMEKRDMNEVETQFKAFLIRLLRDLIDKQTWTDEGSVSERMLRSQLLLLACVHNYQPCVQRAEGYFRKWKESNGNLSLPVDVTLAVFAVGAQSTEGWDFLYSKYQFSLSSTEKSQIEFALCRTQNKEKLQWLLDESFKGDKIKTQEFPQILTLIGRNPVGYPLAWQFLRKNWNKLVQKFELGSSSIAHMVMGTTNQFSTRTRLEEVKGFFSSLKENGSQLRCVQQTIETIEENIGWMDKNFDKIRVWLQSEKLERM

In the case of `C#CC[C@H](CP(=O)(O)[C@@H](N)CCc1ccccc1)C(=O)N[C@@H](Cc1ccccc1)C(N)=O` [compound 3], the IC50 [1] is listed as 2 nM.

For `NC1CCc2cccc(-c3ccccc3)c2CC1=O` (centres unmarked) [21c], the Ki [2] is given as 19000 nM, the Ki (pAPN from porcine kidney) is given as 7 nM and the Ki (E. coli rEcPepN) is given as 160 ± 12 nM. For the same compound, the IC50 [3] was 18000 ± 1300 nM, the Ki [4] was 50 ± 4 nM and the chromatographic logD [5] was 2.12. The Ki (P. falciparum rPfAM1) was 50 ± 5 nM, the Ki (P. falciparum rPfAM17) was greater than 100000 nM and the IC50 [6] was 63000 ± 3000 nM. The Ki [7] was 28000 nM.

In the case of `CC(C)C[C@H](NC(=O)[C@@H](O)[C@H](N)Cc1ccccc1)C(=O)O` [compound 1, Bestatin], the Ki [8] is listed as 11200 nM, the Ki [9] is listed as 25 nM and the Ki [10] is listed as 1.6 nM. The IC50 [11] was 7300 nM, the Ki [12] was 190 nM and the Ki ([13]; ref 38) was 0.6 nM. For the same compound, the Ki ([13]; ref 39) was 20 nM, the IC50 [14] was 350 nM and the Ki ([15]; ref 38) was 6000 nM. For the same compound, the Ki ([15]; ref 39) was 14 nM, the IC50 ([16]; ref 37) was 300 nM and the Ki ([16]; ref 40) was 89000 nM.
